Results reported in patent US6676928B2, “Perfluoroalkyl-containing complexes with polar radicals, process for their production and their use” (Schering Aktiengesellschaft, priority 2000, dated 2004).
Where “and” joins values, the source holds several entries; their conditions need not be identical. Equal values may be shown once. Blank lines part the entries; values can stand above or below the compound they belong to.

Legend:
[1] = system: infarcted tissue (kidney, myocardium); conditions: two cases: infarction-kidney and myocardium; cited from earlier work
[2] = in vivo; cited from earlier work
[3] = Organ distribution (including tumor and lymph node concentration) after intravenous administration in prostate-cancer-carrying rats; format: in vivo, rats (Cop-inbreeding, Dunning R3327 MAT-Lu prostate cancer); conditions: rat i.v. 100 μmol Gd/kg
From the text: Organ Distribution (Including Tumor and Lymph Node Concentration) After Intravenous Administration of the Contrast Medium According to the Invention From Example 3 in Prostate-cancer-Carrying Rats.
After intravenous administration of 100 μmol of total gadolinium/kg of body weight of the title compound of Example 3 in rats (Cop-inbreeding Dunning R3327 MAT-Lu prostate cancer i.m.-implanted 12 days earlier), the metal content in various organs, in tumors and in lymph nodes (pooled as mesenteral and peripheral lymph nodes) was determined 10 minutes, 1 and 24 hours after administration (MW=SD, n=3).

[4] = 39° C., 0.47 T; cited from earlier work
[5] = 39° C., 0.47 T; cited from earlier work; remark: listed apart in the source
[6] = blood (58 ml of blood/kg of body weight), 10 min p.i.
[7] = blood (58 ml of blood/kg of body weight), 1 h p.i.
[8] = blood (58 ml of blood/kg of body weight), 24 h p.i.
[9] = intestine (emptied), 10 min p.i.
[10] = mes. LK (pooled mesenteral lymph nodes), 10 min p.i.
[11] = mes. LK (pooled mesenteral lymph nodes), 1 h p.i.
[12] = mes. LK (pooled mesenteral lymph nodes), 24 h p.i.
[13] = muscle (only tissue sample from right lower leg muscle), 10 min p.i.
[14] = muscle (only tissue sample from right lower leg muscle), 1 h p.i.
[15] = muscle (only tissue sample from right lower leg muscle), 24 h p.i.
[16] = periph. LK (pooled peripheral lymph nodes), 10 min p.i.
[17] = periph. LK (pooled peripheral lymph nodes), 1 h p.i.
[18] = periph. LK (pooled peripheral lymph nodes), 24 h p.i.
[19] = remainder of the body, 24 h p.i.

Compound: gadolinium-mesoporphyrin [Gd-MP]
- ratio of the signal intensities in MRI, infarcted in comparison to healthy tissue [1]: 2.10 and 2.19

Compound: O=S(=O)([O-])c1ccc(-c2c3nc(c(-c4ccc(S(=O)(=O)[O-])cc4)c4ccc([nH]4)c(-c4ccc(S(=O)(=O)[O-])cc4)c4nc(c(-c5ccc(S(=O)(=O)[O-])cc5)c5ccc2[nH]5)C=C4)C=C3)cc1.[Mn+4] [Mn-TPPS, manganese-5,10,15,20-tetrakis(4-sulfonatophenyl)-porphyrin]
- LD50 [2]: approximately 0.5 mmol/kg

- % Dosis pro Gesamtgewebe, Summe der Organe (sum total of all of the organs) ([3]; 10 min p.i., less the remainder of the body): 46,35%
- % Dosis pro Gesamtgewebe, Summe der Organe (sum total of all of the organs) ([3]; 1 h p.i., less the remainder of the body): 41,79%
- % Dosis pro Gesamtgewebe, Bilanz (balance) ([3]; 24 h p.i.): 96,24%
- % Dosis pro Gesamtgewebe, Summe der Organe (sum total of all of the organs) ([3]; 24 h p.i.): 50,95%
- % Dosis pro Gesamtgewebe (% dose per total tissue) [3, 6]: 35,18%
- Gd-Konzentration (Gd-concentration) [3, 6]: 621 µmol/L
- % Dosis pro Gesamtgewebe (% dose per total tissue) [3, 7]: 30,63%
- Gd-Konzentration (Gd-concentration) [3, 7]: 534 µmol/L
- % Dosis pro Gesamtgewebe (% dose per total tissue) [3, 8]: 9,58%
- Gd-Konzentration (Gd-concentration) [3, 8]: 169 µmol/L
- % Dosis pro Gesamtgewebe (% dose per total tissue) ([3]; brain, 10 min p.i.): 0,09%
- Gd-Konzentration (Gd-concentration) ([3]; brain, 10 min p.i.): 16 µmol/L
- % Dosis pro Gesamtgewebe (% dose per total tissue) ([3]; brain, 1 h p.i.): 0,10%
- Gd-Konzentration (Gd-concentration) ([3]; brain, 1 h p.i.): 16 µmol/L
- % Dosis pro Gesamtgewebe (% dose per total tissue) ([3]; brain, 24 h p.i.): 0,03%
- Gd-Konzentration (Gd-concentration) ([3]; brain, 24 h p.i.): 5 µmol/L
- % Dosis pro Gesamtgewebe (% dose per total tissue) ([3]; feces 0-24 h): 8,91%
- Gd-Konzentration (Gd-concentration) ([3]; feces 0-24 h): 561 µmol/L
- % Dosis pro Gesamtgewebe (% dose per total tissue) ([3]; femur, 10 min p.i.): 0,50%
- Gd-Konzentration (Gd-concentration) ([3]; femur, 10 min p.i.): 61 µmol/L
- % Dosis pro Gesamtgewebe (% dose per total tissue) ([3]; femur, 1 h p.i.): 0,50%
- Gd-Konzentration (Gd-concentration) ([3]; femur, 1 h p.i.): 64 µmol/L
- % Dosis pro Gesamtgewebe (% dose per total tissue) ([3]; femur, 24 h p.i.): 0,26%
- Gd-Konzentration (Gd-concentration) ([3]; femur, 24 h p.i.): 33 µmol/L
- % Dosis pro Gesamtgewebe (% dose per total tissue) ([3]; heart, 10 min p.i.): 0,40%
- Gd-Konzentration (Gd-concentration) ([3]; heart, 10 min p.i.): 177 µmol/L
- % Dosis pro Gesamtgewebe (% dose per total tissue) ([3]; heart, 1 h p.i.): 0,33%
- Gd-Konzentration (Gd-concentration) ([3]; heart, 1 h p.i.): 151 µmol/L
- % Dosis pro Gesamtgewebe (% dose per total tissue) ([3]; heart, 24 h p.i.): 0,15%
- Gd-Konzentration (Gd-concentration) ([3]; heart, 24 h p.i.): 65 µmol/L
- % Dosis pro Gesamtgewebe (% dose per total tissue) [3, 9]: 2,48%
- Gd-Konzentration (Gd-concentration) [3, 9]: 146 µmol/L
- % Dosis pro Gesamtgewebe (% dose per total tissue) ([3]; intestine (emptied), 1 h p.i.): 1,85%
- Gd-Konzentration (Gd-concentration) ([3]; intestine (emptied), 1 h p.i.): 130 µmol/L
- % Dosis pro Gesamtgewebe (% dose per total tissue) ([3]; intestine (emptied), 24 h p.i.): 1,63%
- Gd-Konzentration (Gd-concentration) ([3]; intestine (emptied), 24 h p.i.): 101 µmol/L
- % Dosis pro Gesamtgewebe (% dose per total tissue) ([3]; kidney, 10 min p.i.): 1,70%
- Gd-Konzentration (Gd-concentration) ([3]; kidney, 10 min p.i.): 359 µmol/L
- % Dosis pro Gesamtgewebe (% dose per total tissue) ([3]; kidney, 1 h p.i.): 2,00%
- Gd-Konzentration (Gd-concentration) ([3]; kidney, 1 h p.i.): 394 µmol/L
- % Dosis pro Gesamtgewebe (% dose per total tissue) ([3]; kidney, 24 h p.i.): 1,38%
- Gd-Konzentration (Gd-concentration) ([3]; kidney, 24 h p.i.): 292 µmol/L
- % Dosis pro Gesamtgewebe (% dose per total tissue) ([3]; liver, 10 min p.i.): 3,79%
- Gd-Konzentration (Gd-concentration) ([3]; liver, 10 min p.i.): 137 µmol/L
- % Dosis pro Gesamtgewebe (% dose per total tissue) ([3]; liver, 1 h p.i.): 3,93%
- Gd-Konzentration (Gd-concentration) ([3]; liver, 1 h p.i.): 136 µmol/L
- % Dosis pro Gesamtgewebe (% dose per total tissue) ([3]; liver, 24 h p.i.): 5,37%
- Gd-Konzentration (Gd-concentration) ([3]; liver, 24 h p.i.): 172 µmol/L
- % Dosis pro Gesamtgewebe (% dose per total tissue) ([3]; lung, 10 min p.i.): 1,30%
- Gd-Konzentration (Gd-concentration) ([3]; lung, 10 min p.i.): 344 µmol/L
- % Dosis pro Gesamtgewebe (% dose per total tissue) ([3]; lung, 1 h p.i.): 1,27%
- Gd-Konzentration (Gd-concentration) ([3]; lung, 1 h p.i.): 321 µmol/L
- % Dosis pro Gesamtgewebe (% dose per total tissue) ([3]; lung, 24 h p.i.): 0,56%
- Gd-Konzentration (Gd-concentration) ([3]; lung, 24 h p.i.): 146 µmol/L
- % Dosis pro Gesamtgewebe (% dose per total tissue) [3, 10]: 0,11%
- Gd-Konzentration (Gd-concentration) [3, 10]: 155 µmol/L
- % Dosis pro Gesamtgewebe (% dose per total tissue) [3, 11]: 1,10%
- Gd-Konzentration (Gd-concentration) [3, 11]: 160 µmol/L
- % Dosis pro Gesamtgewebe (% dose per total tissue) [3, 12]: 0,09%
- Gd-Konzentration (Gd-concentration) [3, 12]: 127 µmol/L
- % Dosis pro Gesamtgewebe (% dose per total tissue) [3, 13]: 0,12%
- Gd-Konzentration (Gd-concentration) [3, 13]: 41 µmol/L
- % Dosis pro Gesamtgewebe (% dose per total tissue) [3, 14]: 0,08%
- Gd-Konzentration (Gd-concentration) [3, 14]: 40 µmol/L
- % Dosis pro Gesamtgewebe (% dose per total tissue) [3, 15]: 0,03%
- Gd-Konzentration (Gd-concentration) [3, 15]: 13 µmol/L
- % Dosis pro Gesamtgewebe (% dose per total tissue) ([3]; pancreas, 10 min p.i.): 0,25%
- Gd-Konzentration (Gd-concentration) ([3]; pancreas, 10 min p.i.): 99 µmol/L
- % Dosis pro Gesamtgewebe (% dose per total tissue) ([3]; pancreas, 1 h p.i.): 0,23%
- Gd-Konzentration (Gd-concentration) ([3]; pancreas, 1 h p.i.): 95 µmol/L
- % Dosis pro Gesamtgewebe (% dose per total tissue) ([3]; pancreas, 24 h p.i.): 0,18%
- Gd-Konzentration (Gd-concentration) ([3]; pancreas, 24 h p.i.): 55 µmol/L
- % Dosis pro Gesamtgewebe (% dose per total tissue) [3, 16]: 0,13%
- Gd-Konzentration (Gd-concentration) [3, 16]: 115 µmol/L
- % Dosis pro Gesamtgewebe (% dose per total tissue) [3, 17]: 0,19%
- Gd-Konzentration (Gd-concentration) [3, 17]: 186 µmol/L
- % Dosis pro Gesamtgewebe (% dose per total tissue) [3, 18]: 0,11%
- Gd-Konzentration (Gd-concentration) [3, 18]: 108 µmol/L
- % Dosis pro Gesamtgewebe (% dose per total tissue) [3, 19]: 31,05%
- Gd-Konzentration (Gd-concentration) [3, 19]: 103 µmol/L
- % Dosis pro Gesamtgewebe (% dose per total tissue) ([3]; spleen, 10 min p.i.): 0,25%
- Gd-Konzentration (Gd-concentration) ([3]; spleen, 10 min p.i.): 184 µmol/L
- % Dosis pro Gesamtgewebe (% dose per total tissue) ([3]; spleen, 1 h p.i.): 0,23%
- Gd-Konzentration (Gd-concentration) ([3]; spleen, 1 h p.i.): 161 µmol/L
- % Dosis pro Gesamtgewebe (% dose per total tissue) ([3]; spleen, 24 h p.i.): 0,25%
- Gd-Konzentration (Gd-concentration) ([3]; spleen, 24 h p.i.): 161 µmol/L
- % Dosis pro Gesamtgewebe (% dose per total tissue) ([3]; stomach (emptied), 10 min p.i.): 0,47%
- Gd-Konzentration (Gd-concentration) ([3]; stomach (emptied), 10 min p.i.): 90 µmol/L
- % Dosis pro Gesamtgewebe (% dose per total tissue) ([3]; stomach (emptied), 1 h p.i.): 0,50%
- Gd-Konzentration (Gd-concentration) ([3]; stomach (emptied), 1 h p.i.): 93 µmol/L
- % Dosis pro Gesamtgewebe (% dose per total tissue) ([3]; stomach (emptied), 24 h p.i.): 0,27%
- Gd-Konzentration (Gd-concentration) ([3]; stomach (emptied), 24 h p.i.): 48 µmol/L
- % Dosis pro Gesamtgewebe (% dose per total tissue) ([3]; tumor, 10 min p.i.): 0,20%
- Gd-Konzentration (Gd-concentration) ([3]; tumor, 10 min p.i.): 82 µmol/L
- % Dosis pro Gesamtgewebe (% dose per total tissue) ([3]; tumor, 1 h p.i.): 0,40%
- Gd-Konzentration (Gd-concentration) ([3]; tumor, 1 h p.i.): 126 µmol/L
- % Dosis pro Gesamtgewebe (% dose per total tissue) ([3]; tumor, 24 h p.i.): 0,46%
- Gd-Konzentration (Gd-concentration) ([3]; tumor, 24 h p.i.): 100 µmol/L
- % Dosis pro Gesamtgewebe (% dose per total tissue) ([3]; urine 0-24 h): 36,38%
- Gd-Konzentration (Gd-concentration) ([3]; urine 0-24 h): 60 µmol/L
Compound: CC(C(=O)NCC(=O)NCCCC[C@H](NC(=O)CNC(=O)C(C)N1CCN(CC(=O)[O-])CCN(CC(=O)[O-])CCN(CC(=O)[O-])CC1)C(=O)N1CCN(S(=O)(=O)C(F)(F)C(F)(F)C(F)(F)C(F)(F)C(F)(F)C(F)(F)C(F)(F)C(F)(F)F)CC1)N1CCN(CC(=O)[O-])CCN(CC(=O)[O-])CCN(CC(=O)[O-])CC1.[Gd+3].[Gd+3] (some centres unmarked) [Example 3]

Compound: CNC(=O)CN(CCN(CCN(CC(=O)[O-])CC(=O)NC)CC(=O)[O-])CC(=O)[O-].[Gd+3] [OMNISCAN ®]
- T^1 - Relaxivity in Plasma [4]: 4.4 mmol⁻¹ s⁻¹
- T^1 - Relaxivity in Water [5]: 3.8 mmol⁻¹ s⁻¹

Compound: CNC[C@H](O)[C@@H](O)[C@H](O)[C@H](O)CO.O=C([O-])CN1CCN(CC(=O)[O-])CCN(CC(=O)O)CCN(CC(=O)[O-])CC1.[Gd+3] [DOTAREM ®]
- T^1 - Relaxivity in Plasma [4]: 4.3 mmol⁻¹ s⁻¹
- T^1 - Relaxivity in Water [5]: 3.5 mmol⁻¹ s⁻¹

Compound: CC(O)CN1CCN(CC(=O)[O-])CCN(CC(=O)[O-])CCN(CC(=O)[O-])CC1.[Gd+3] (centres unmarked) [PRO HANCE ®]
- T^1 - Relaxivity in Plasma [4]: 4.9 mmol⁻¹ s⁻¹
- T^1 - Relaxivity in Water [5]: 3.7 mmol⁻¹ s⁻¹

Compound: CNC[C@H](O)[C@@H](O)[C@H](O)[C@H](O)CO.CNC[C@H](O)[C@@H](O)[C@H](O)[C@H](O)CO.O=C([O-])CN(CCN(CC(=O)[O-])CC(=O)O)CCN(CC(=O)[O-])CC(=O)O.[Gd+3] [MAGNEVIST ®]
- T^1 - Relaxivity in Plasma [4]: 4.8 mmol⁻¹ s⁻¹
- T^1 - Relaxivity in Water [5]: 3.8 mmol⁻¹ s⁻¹
